Assay: log P by HPLC on reversed-phase column (C18), EEC Directive 79/831 Annex V.A8
Type: physicochemical
Settings: C18, 40° C.; for log p H3PO4: 0.1% aqueous phosphoric acid / acetonitrile; for log p HCO2H: aqueous formic acid / acetonitrile
Protocol: The log P data were determined in accordance with the EEC Directive 79/831 Annex V.A8 by HPLC (High Performance Liquid Chromatography) on a reversed-phase column (C18) using the following methods: […]
Calibration was carried out with the help of unbranched alkan-2-ones (consisting of 3 to 13 or 16 carbon atoms) with known logP values (determination of the logP values via the retention times by means of linear interpolation between two subsequent alkanones).

log p H3PO4	log p HCO2H	log p neutral	log p acidic	Structure (SMILES)
2.9	2.94	6.13	–	CN(C)C=Nc1cc(Cl)c(Oc2ccc(Cl)c(C(C)(C)C)c2)cc1Cl [compound 810]
–	–	–	2.86	Cc1cc(Oc2cc(Cl)cc(C(F)(F)F)c2)c(Cl)cc1N=CN1CCCCC1 [compound 568]
2.7	2.82	6.13	–	CC(C)N(C)C=Nc1cc(Cl)c(Oc2cccc(C(C)(C)C)c2)cc1Cl [compound 807]
–	2.45	–	–	CCN(C)C=Nc1cc(C)c(CCc2ccc(C(F)(F)F)cc2)cc1C [compound 250]
–	–	5.09	1.90	CCCN(C)C=Nc1cc(Cl)c(Oc2cc(C(C)(C)C)nn2C)cc1C [compound 597]
3.35	3.31	6.81	–	CC(C)N(C)C=Nc1cc(Cl)c(Oc2ccc(Cl)c(C(C)(C)C)c2)cc1Cl [compound 812]
–	–	–	1.98	Cc1cc(Oc2nc(C3(Cl)CC3)ns2)c(Cl)cc1N=CN1CCCCC1 [compound 614]
2.34	2.56	5.25	–	CCN(C)C=Nc1cc(Cl)c(Oc2nc(C(C)(C)C)ns2)cc1Cl [compound 825]
–	2.21	–	–	CCN(C)C=Nc1cc(C)c(C=Cc2ccccc2C)cc1C [compound 270]
–	3.11	7.36	–	COc1cc(Oc2ccc(Cl)c(C(C)(C)C)c2)c(OC)cc1N=CN(C)C [compound 981]
–	–	7.01	2.93	CCCN(C)C=Nc1cc(C)c(Oc2ccc(Br)c(C(C)C)c2)cc1C [compound 356]
2.03	2.12	5.09	–	Clc1cc(Oc2ccccc2)c(Cl)cc1N=CN1CCCCC1 [compound 804]
2.85	3	6.12	–	FC(F)(F)c1cc(Oc2cc(Cl)c(N=CN3CCCCC3)cc2Cl)ccc1Cl [compound 819]
–	2.87	6.70	–	Cc1cc(Oc2ccc(Cl)c(C(C)C)c2)c(Cl)cc1N=CN(C)C(C)C [compound 572]
1.35	3.01	6.87	–	Cc1cc(N=CN(C)C(C)C)c(Cl)cc1Oc1ccc(Cl)c(C(C)(C)C)c1 [compound 904]
–	2.41	–	–	Cc1cc(Oc2ncnc(Oc3ccc(Cl)cc3)c2F)c(Cl)cc1N=CN1CCCCC1 [compound 622]
2.35	2.3	5.08	–	Cc1cc(N=CN(C)C)c(Cl)cc1Oc1ccc(Cl)c(C(F)(F)F)c1 [compound 892]
–	–	–	2.29	Cc1cc(Oc2cc(F)cc(C(F)(F)F)c2)c(C)cc1N=CN1CCCCC1 [compound 373]
2.51	2.44	5.49	–	CCN(C)C=Nc1cc(C)c(Oc2ccc(Cl)c(C(F)(F)F)c2)cc1Cl [compound 893]
–	–	5.31	2.3	CCN(C)C=Nc1cc(C)c(-c2ccc(Cl)c(C(F)(F)F)c2)cc1Cl [compound 928]
2.87	2.62	5.91	–	Cc1cc(N=CN(C)C(C)C)c(Cl)cc1Oc1ccc(C(C)C)cc1 [compound 889]
2	2.08	4.84	–	CC(C)N(C)C=Nc1cc(Cl)c(Oc2ccccc2)cc1Cl [compound 802]

log p H3PO4	log p HCO2H	log p neutral	log p acidic	Structure (SMILES)
3	2.79	6.42	–	Cc1cc(N=CN2CCCCC2)c(Cl)cc1Oc1cccc(C(C)(C)C)c1 [compound 873]
–	–	–	2.79	CCN(C)C=Nc1cc(F)c(-c2ccc(C(C)(C)C)cc2)cc1F [compound 846]
–	–	–	2.75	CCN(C)C=Nc1cc(OC)c(Oc2ccc(Cl)c(C(C)(C)C)c2)cc1C [compound 733]
–	–	–	1.68	CCN(C)C=Nc1cc(C)c(Oc2ccc(C#N)c(C(F)(F)F)c2)cc1C [compound 226]
2.13	–	–	–	CCN(C)C=Nc1cc(F)c(-c2ccc(Cl)cc2)cc1C [compound 664]
2.22	–	–	–	Cc1cc(-c2ccc(Cl)cc2)c(F)cc1N=CN(C)C(C)C [compound 665]
2.79	2.54	5.84	–	Cc1cc(N=CN(C)C(C)C)c(Cl)cc1Oc1cccc(C(C)(C)C)c1 [compound 871]
1.99	–	–	–	CCN(C)C=Nc1cc(C)c(OCc2sc(Cl)nc2Cl)cc1C [compound 555]
3.16	3.17	6.64	–	CCN(C)C=Nc1cc(Cl)c(Oc2ccc(Cl)c(C(C)(C)C)c2)cc1Cl [compound 811]
2.98	2.8	6.54	–	CCN(C)C=Nc1cc(C)c(Oc2ccc(Cl)c(C(C)(C)C)c2)cc1Cl [compound 903]
–	–	–	2.66	Cc1cc(Oc2cc(Cl)cc(C(F)(F)F)c2)c(Cl)cc1N=CN1CCCC1 [compound 567]
1.86	1.91	4.49	–	CCN(C)C=Nc1cc(Cl)c(Oc2ccccc2)cc1Cl [compound 801]
–	–	4.75	1.79	Cc1cc(Oc2cc(C(C)C)nn2C)c(Cl)cc1N=CN1CCCCC1C (stereo not shown) [compound 606]
–	–	–	2.76	CCN(C)C=Nc1cc(C)c(Oc2nc(C(C)(C)C)c(Cl)s2)cc1C [compound 559]
–	–	7.36	–	Cc1cc(Oc2ccc(Cl)c(C(C)C)c2)c(C)cc1N=CN(C)C(C)C [compound 401]
–	–	4.04	1.65	CCN(C)C=Nc1cc(Cl)c(Oc2cc(C(C)C)nn2C)cc1C [compound 602]
–	1.84	4.41	1.84	CCN(C)C=Nc1cc(Cl)c(Oc2cc(C(C)(C)C)nn2C)cc1C [compound 596]
2.88	2.78	6.12	–	CCN(C)C=Nc1cc(C)c(Oc2ccc(Cl)c(C(C)C)c2)cc1Cl [compound 898]
–	–	–	3.06	CCCN(C)C=Nc1cc(Cl)c(Oc2ccc(Cl)c(C(C)(C)C)c2)cc1C [compound 578]
–	2.90	7.14	2.90	CCC(C)N(C)C=Nc1cc(Cl)c(Oc2ccc(Cl)c(C(C)C)c2)cc1C (stereo not shown) [compound 573]
–	–	–	2.38	CCN(C)C=Nc1cc(F)c(-c2ccc(C(C)(C)C)cc2)cc1C [compound 669]
2.04	–	–	–	Cc1cc(-c2ccc(Cl)cc2)c(F)cc1N=CN(C)C [compound 663]

log p H3PO4	log p HCO2H	log p neutral	log p acidic	Structure (SMILES)
3.03	3.42	6.2	–	FC(F)(F)c1cc(Oc2cc(Cl)c(N=CN3CCCCC3)cc2C(F)(F)F)ccc1Cl [compound 951]
2.77	2.62	6.14	–	Cc1cc(N=CN2CCCCC2)c(Cl)cc1Oc1cccc(C(C)C)c1 [compound 878]
–	3.24	6.94	–	Cc1cc(Oc2ccc(Cl)c(C(C)(C)C)c2)c(Cl)cc1N=CN(C)C1CC1 [compound 577]
–	–	5.74	2.71	Cc1cc(-c2ccc(C(C)(C)C)cc2)c(C)cc1N=CN(C)C [compound 445]
–	2.06	–	–	CCN(C)C=Nc1cc(C)c(C=Cc2ccc(OC)cc2)cc1C [compound 286]
2.87	2.98	5.74	–	CCN(C)C=Nc1cc(C(F)(F)F)c(Oc2ccc(Cl)c(C(F)(F)F)c2)cc1Cl [compound 948]
–	–	4.5	2.35	COc1cc(Oc2ccc(Cl)c(C(F)(F)F)c2)c(OC)cc1N=CN(C)C(C)C [compound 987]
–	–	–	2.38	CCN(C)C=Nc1cc(C)c(Oc2ccc3ccccc3c2)cc1C [compound 538]
–	2.20	–	–	CCN(C)C=Nc1cc(Cl)c(Oc2ncnc(Oc3ccc(Cl)cc3)c2F)cc1C [compound 620]
–	2.72	–	2.96	Cc1cc(Oc2cccc(C(C)(C)C)c2)c(C)cc1N=CN(C)C(C)C [compound 440]
–	–	6.30	2.69	CCN(C)C=Nc1cc(C)c(-c2ccc(C(C)(C)C)cc2)cc1C [compound 446]
3.61	3.68	7.1	–	CC(C)(C)c1cc(Oc2cc(Cl)c(N=CN3CCCCC3)cc2C(F)(F)F)ccc1Cl [compound 946]
–	–	–	2.51	Cc1cc(Oc2cc(Cl)cc(C(F)(F)F)c2)c(Cl)cc1N=CN(C)C [compound 564]
1.57	2.65	6.11	–	Cc1cc(N=CN(C)C)c(Cl)cc1Oc1ccc(Cl)c(C(C)(C)C)c1 [compound 902]
–	–	5.34	1.90	Cc1cc(Oc2cc(C(C)(C)C)nn2C)c(Cl)cc1N=CN1CCCCC1 [compound 600]
–	–	–	2.23	CCN(C)C=Nc1cc(F)c(-c2ccc(OC(C)(C)C)cc2)cc1C [compound 673]
–	2.45	–	–	CCN(C)C=Nc1cc(C)c(CCc2ccccc2F)cc1C [compound 345]
–	2.37	–	–	Cc1cc(Oc2ccc(F)c(C(F)(F)F)c2)c(C)cc1N=CN(C)C [compound 365]
3.01	2.78	6.49	–	Cc1cc(N=CN2CCCCC2)c(Cl)cc1Oc1ccc(C(C)(C)C)cc1 [compound 886]
–	–	–	2.83	CCCN(C)C=Nc1cc(Cl)c(Oc2cc(Cl)cc(C(F)(F)F)c2)cc1C [compound 566]
3.35	3.39	6.63	–	CCN(C)C=Nc1cc(C(F)(F)F)c(Oc2ccc(Cl)c(C(C)(C)C)c2)cc1Cl [compound 944]

Source: US20100113276A1, “USE OF N2-PHENYLAMIDINES AS HERBICIDES” (BAYER CROPSCIENCE AG, priority 2007, published 2010)
